Experiments:
[1] = tested on: hMMP-1 promoter reporter gene in Hela cells (GR transcription repression); test: hMMP1 transcription repression activity, luciferase reporter gene screening system (hMMP1 GR transcription repression test); assay type: cell-based; conditions: Homo sapiens; for Emax: HeLa, maximum effect value, positive control 1000 nM dexamethasone, read-out: TR (hMMP1 transcription inhibition activity) Effect; for IC50: absolute IC50, HeLa hMMP-1/luciferase cells, 10 nM PMA, 18 h, max concentration 1000 nM, read-out: TR (hMMP1 transcription inhibition activity) IC50
Source text: Human MMP-1 promoter region (containing two AP-1 binding sites and two PEA3 sites, a total of 249bp, GenBank catalog #AF023338) was cloned into the upstream of luciferase reporter gene. The hMMP-1 promoter reporter gene was constructed and transfected into Hela cells so that luciferase production could be easily detected. A stable recombinant hMMP-⅟luciferase cell line was used for the development and validation of this experiment.
• [0377] 1) All the culture media were carefully aspirated, and the cell layer was rinsed gently with an appropriate amount of DPBS, and then aspirated. • [0378] 2) An appropriate amount of 0.05% Typsine EDTA was added and incubated in a CO2 incubator for 3-5 minutes to digest the cells. • [0379] 3) The cells were resuspended with an appropriate amount of cell culture medium. • [0380] 4) The required amount of cells were calculated. The cell concentration was 5x10^3 cells/well. • [0381] 5) The cell suspension was diluted with appropriate cell culture medium. • [0382] 6) The cell suspension was dispensed into a disposable sterile loading slot. • [0383] 7) Inoculated 30µL per well into a 384-well plate. • [0384] 8) The cell plate was placed in a 37° C. 5% CO2 incubator for 18-24 hours.
The final DMSO concentration was 0.1%. PMA needs to be protected from light during use.
hMMP1 GR transcription repression activity test • [0395] 1) Inoculated cells: Fresh cells were inoculated into 384 white experimental plates at 5x10^3 cells/30µL/well, and incubated in a 5% CO2 incubator at 37° C. for 24 hours. • [0396] 2) Compound preparation: The compound plate was prepared before the experiment, and the reference compound (dexamethasone) and the tested compound of 10x concentration were prepared. Finally, the experimental plate of 10× concentration compound was obtained. • [0397] 3) Added compound: 3.3 µL of 10x compound was transferred with Bravo and added to cell plate. Incubated for 18 hours in a 5% CO2 incubator at 37° C. • [0398] 4) 30 µL of Bright-Glo fluorescent detection reagent was transferred to the cell plate. • [0399] 5) Centrifugal incubation for 2 minutes. • [0400] 6) The fluorescence value was measured with the Envision plate reader.
Positive Control: 10 nM PMA + 1000 nM dexamethasone (0.1% DMSO)
Negative control: 10 nM PMA (0.1% DMSO)
(§1) Test compound: Maximum concentration of 1000 nM, 4-fold dilution, 10 wells in total, repeated.
(§2) Dexamethasone: Maximum concentration of 1000 nM, 4-fold dilution, 10 wells in total, repeated.
The graphing software GraphPad Prism5 was used to create the concentration curves of the test compounds and calculate the IC50 values.

[2] = tested on: MMTV promoter luciferase reporter in HeLa cell line (GR transcription activation); test: MMTV transcription activation activity, luciferase reporter gene screening system (MMTV_GR transcription activation experiment); assay type: cell-based; conditions: Homo sapiens; for Emax: HeLa, maximum effect value, positive control 1000 nM dexamethasone, read-out: TA (MMTV transcription activation activity) Effect; for EC50: absolute EC50, HeLa MMTV-luciferase cells, 18 h, max concentration 1000 nM, read-out: TA (MMTV transcription activation activity) EC50
Source text: The promoter of mouse mammary tumor virus (MMTV) contains specific binding sites for activating GRs (GREs). To determine the activity of the compounds, a reporter gene (luciferase) was inserted after the MMTV promoter, and this construct was expressed in a stable manner in the genome of the HeLa cell line. MMTV promoter was activated by the test compounds to induce the expression of luciferase, and its activity was detected by luminescence measurement.
• [0442] 1) All the culture media were carefully aspirated, the cell layer was rinsed gently with an appropriate amount of DPBS, and then aspirated. • [0443] 2) An appropriate amount of 0.05% Typsine EDTA was added and incubated in a CO2 incubator for 3-5 minutes to digest the cells. • [0444] 3) The cells were resuspended with an appropriate amount of cell culture medium. • [0445] 4) The amount of cells required was calculated, and the cell concentration was 4×10^3 cells/well. • [0446] 5) The cell suspension was diluted with appropriate cell culture medium. • [0447] 6) Cell suspension was dispensed into a disposable sterile loading slot. • [0448] 7) Inoculated 30 µL per well into a 384-well plate. • [0449] 8) The cell plate was placed in a 37° C. 5% CO2 incubator for 18-24 hours.
Compounds were diluted with DMSO to 1 mM, 0.25 mM, 0.0625 mM, 0.015625 mM, 0.0039 mM, 0.0009765 mM, 0.000244 mM, 0.000061 mM, 0.00001526 mM and 0.0000038125 mM, then diluted 25-fold with serum culture medium treated with activated carbon, and finally 4x concentration compound experimental plate was obtained, prepared before use.
The final DMSO experimental concentration was 0.1%.
MMTV_GR transcription activation activity experiment • [0458] 1) Inoculated cells: Fresh cells were inoculated into 384 white transparent bottom experimental plates at 4×10^3 cells/30 µL/well, and incubated at 37° C. 5% CO2 incubator for 24 hours. • [0459] 2) Compound preparation: The compound plate was prepared before the experiment, and the reference compound (dexamethasone) and the test compound of 4x concentration were prepared. Finally, the experimental plate of 4x concentration compound was obtained. • [0460] 3) Added compound: 10 µL of 4x compound was transferred with Bravo and added to cell plate. Incubated for 18 hours in a 37° C. 5% CO2 incubator. • [0461] 4) 30 µL of Bright-Glo fluorescent detection reagent was transferred to the cell plate. • [0462] 5) Centrifugal incubation for 2 minutes. • [0463] 6) The fluorescence value was measured with the Envision plate reader.
Positive control: 1000 nM dexamethasone (0.1% DMSO)
Negative control: 0.1% DMSO
as §1, §2
The graphing software GraphPad Prism5 was used to create the concentration curves of the tested compounds and calculate the IC50 values.

For `CC(C)[C@H](NC(=O)C(C)(F)F)[C@H](Oc1ccc2c(cnn2-c2ccc3c(c2)CCO3)c1)c1ccccc1` [WX005], the Emax [1] was 70.7% and the IC50 [1] was 6.75 nM.
`CC(C)[C@H](NC(=O)C(C)(F)F)[C@H](Oc1ccc2c(cnn2-c2ccc3c(c2)CCCO3)c1)c1ccccc1` [WX006] showed an Emax [1] of 73% and an IC50 [1] of 79.2 nM.
`CC(C)[C@H](NC(=O)C(C)(F)F)[C@H](Oc1ccc2c(cnn2-c2ccc3ncccc3c2)c1)c1ccccc1` [WX007] was tested, and the Emax [1] was 63.6% and the IC50 [1] was 121 nM.
`CC(C)[C@H](NC(=O)C(C)(F)F)[C@H](Oc1ccc2c(cnn2-c2ccc3c(c2)OCO3)c1)c1ccccc1` [WX008] gave an Emax [1] of 91.4% and an IC50 [1] of 58.9 nM.
Molecule `C[C@H](NC(=O)C(C)(F)F)[C@H](Oc1ccc2c(cnn2-c2ccc3nccn3c2)c1)c1ccccc1` [WX012] has an Emax [2] of 103% and an EC50 [2] of 0.019 nM.
`CC(C)[C@H](NC(=O)C(C)(F)F)[C@H](Oc1ccc2c(cnn2-c2ccc3nnnn3c2)c1)c1ccccc1` [WX024] showed an Emax [1] of 54.5%, an IC50 [1] of 32.5 nM and an Emax [2] of 31.5%. It also gave an EC50 [2] of 78.2 nM.
`CC(C)[C@H](NC(=O)C(C)(F)F)[C@H](Oc1ccc2c(cnn2-c2cn3cnnc3cn2)c1)c1ccccc1` [WX025] was tested, and the Emax [1] was 76.1% and the IC50 [1] was 28.4 nM.
`CC(C)[C@H](NC(=O)C(C)(F)F)[C@H](Oc1ccc2c(cnn2-c2cnc3cnccn23)c1)c1ccccc1` [WX027] was tested, and the Emax [1] was 79% and the IC50 [1] was 70.6 nM.
Molecule `C[C@H](NC(=O)C(C)(F)F)[C@H](Oc1ccc2c(cnn2-c2ccn3cnnc3c2)c1)c1cc(F)cc(F)c1` [WX029] has an Emax [1] of 93.8%, an IC50 [1] of 13.9 nM and an Emax [2] of 62.9%. It also gave an EC50 [2] of 21.4 nM.
`CC(C)[C@H](NC(=O)C(C)(F)F)[C@H](Oc1ccc2c(cnn2-c2ccc3n[nH]c(=O)n3c2)c1)c1ccccc1` [WX031] showed an Emax [1] of 54.4% and an IC50 [1] of 42.7 nM.
In the case of `CC(C)[C@H](NC(=O)C(C)(F)F)[C@H](Oc1ccc2c(cnn2-c2ccc3nn(C)c(=O)n3c2)c1)c1ccccc1` [WX032], the Emax [1] is reported as 57.4% and the IC50 [1] is reported as 56.6 nM.
In the case of `CC(C)[C@H](NC(=O)C(C)(F)F)[C@H](Oc1ccc2c(cnn2-c2ccc3noc(=O)n3c2)c1)c1ccccc1` [WX033], the Emax [1] is reported as 71.8% and the IC50 [1] is reported as 11.6 nM.
Work on `C[C@H](NC(=O)C(C)(F)F)[C@H](Oc1ccc2c(cnn2-c2ccc3[nH]c(=O)oc3c2)c1)c1cc(F)cc(F)c1` [WX036] yielded an Emax [1] of 92.8%, an IC50 [1] of 0.905 nM and an Emax [2] of 80.1%. It also gave an EC50 [2] of 2.31 nM.
In the case of `Cc1nnc2ccc(-n3ncc4cc(O[C@H](c5cc(F)cc(F)c5)[C@H](C)NC(=O)C(C)(F)F)ccc43)cn12` [WX037], the Emax [1] is reported as 87.8%, the IC50 [1] is reported as 5.66 nM and the Emax [2] is reported as 73%. The EC50 [2] was 12.6 nM.
`CC(C)[C@H](NC(=O)C(C)(F)F)[C@H](Oc1ccc2c(cnn2-c2cnn(C)c2)c1)c1cc(F)cc(F)c1` [WX042] was tested, and the Emax [1] was 89%, the IC50 [1] was 1.38 nM and the Emax [2] was 43.5%. The EC50 [2] was 3.06 nM.
With `CC(C)[C@H](NC(=O)C(C)(F)F)[C@H](Oc1ccc2c(cnn2-c2cnn(C)c2)c1)c1ccccc1` [WX045] the Emax [1] was 73.6%, the IC50 [1] was 6.74 nM and the Emax [2] was 55.6%. It also gave an EC50 [2] of 12.9 nM.
Work on `C[C@H](NC(=O)C(C)(F)F)[C@H](Oc1ccc2c(cnn2-c2cscn2)c1)c1ccccc1` [WX052] yielded an Emax [1] of 92.5%, an IC50 [1] of 0.97 nM and an Emax [2] of 57.8%. The EC50 [2] was 3.37 nM.
